Source: PMC5341770 (Nature microbiology, 2017)

Target: T1, WarA (PA4379) (Pseudomonas aeruginosa, UniProt Q9HW23)
T1 sequence (Q9HW23 1-227): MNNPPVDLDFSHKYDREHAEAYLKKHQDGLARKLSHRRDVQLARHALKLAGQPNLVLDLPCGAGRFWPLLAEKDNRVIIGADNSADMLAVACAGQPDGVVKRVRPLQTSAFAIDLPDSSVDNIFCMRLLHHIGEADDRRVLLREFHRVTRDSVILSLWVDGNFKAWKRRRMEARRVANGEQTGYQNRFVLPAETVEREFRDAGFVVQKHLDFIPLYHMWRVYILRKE
Details: methyl acceptor: LPS from a warA deletion mutant

Question: With `C[S+](CC[C@H](N)C(=O)O)C[C@H]1O[C@@H](n2cnc3c(N)ncnc32)[C@H](O)[C@@H]1O` (stereo partly drawn) [S-adenosyl-L-methionine] as the compound, how does the “fluorescent methyltransferase activity kit” value read?
Answer: using S-adenosyl-L-methionine as the methyl group donor and measuring activity in relative fluorescent units
